# Results published in ChEMBL document CHEMBL1146336, “The dicationic derivatives of DBTAA: Interactions with DNA/RNA and antiproliferative effects on human cell lines” (Bioorg Med Chem, 2007).
# pIC50: −log10 of the molar value.
# Legend:
# MIA PaCa-2 [1] = test: Effect on cell cycle in human MiaPaCa2 cells assessed as accumulation at G1/G0 phase at 5 uM after 72 hrs by […]; format: functional
# MIA PaCa-2 [2] = test: Antiproliferative activity against human MiaPaCa2 cells after 72 hrs by MTT assay a; format: functional, cell-based; details: MIA PaCa-2, 72 h
# [3] = Binding affinity to poly A-poly U 0.15 mol/dm^3 by UV/vis titration
# MIA PaCa-2 [4] = test: Effect on cell cycle in human MiaPaCa2 cells assessed as accumulation at G2/M phase at 5 uM after 72 hrs by […]; format: functional
# MIA PaCa-2 [5] = test: Effect on cell cycle in human MiaPaCa2 cells assessed as accumulation at sub-G1 phase at 5 uM after 72 hrs by Annexin-V assay; format: functional
# [6] = Binding affinity to poly G-poly C 0.05 mol/dm^3 by UV/vis titration
# MIA PaCa-2 [7] = test: Effect on cell cycle in human MiaPaCa2 cells assessed as accumulation at G2/M phase at 5 uM after 48 hrs by […]; format: functional
# [8] = Binding affinity to poly dA-poly dT 0.05 mol/dm^3 by UV/vis titration
# MIA PaCa-2 [9] = test: Effect on cell cycle in human MiaPaCa2 cells assessed as accumulation at G2/M phase at 5 uM after 24 hrs by […]; format: functional
# MIA PaCa-2 [10] = test: Effect on cell cycle in human MiaPaCa2 cells assessed as accumulation at S phase at 5 uM after 72 hrs by […]; format: functional
# MIA PaCa-2 [11] = test: Effect on cell cycle in human MiaPaCa2 cells assessed as accumulation at G1/G0 phase at 5 uM after 24 hrs by […]; format: functional
# MIA PaCa-2 [12] = test: Effect on cell cycle in human MiaPaCa2 cells assessed as accumulation at sub-G1 phase at 5 uM after 24 hrs by […]; format: functional
# MCF7 = test: Antiproliferative activity against human MCF7 cells after 72 hrs by MTT assay; format: functional, cell-based; details: MCF7, 72 h
# [13] = Binding affinity to poly dA-poly dT 0.15 mol/dm^3 by UV/vis titration
# HeLa = test: Antiproliferative activity against human HeLa cells after 72 hrs by MTT assay; format: functional, cell-based
# [14] = Binding affinity to poly A-poly U 0.05 mol/dm^3 by UV/vis titration
# [15] = Antiproliferative activity against human WI38 cells after 72 hrs by MTT assay; format: cell-based; details: WI-38, 72 h
# MIA PaCa-2 [16] = test: Effect on cell cycle in human MiaPaCa2 cells assessed as accumulation at sub-G1 phase at 5 uM after 48 hrs by Annexin-V assay; format: functional
# SW-620 = test: Antiproliferative activity against human SW620 cells after 72 hrs by MTT assay; format: functional, cell-based; details: SW-620, 72 h
# MIA PaCa-2 [17] = test: Effect on cell cycle in human MiaPaCa2 cells assessed as accumulation at G1/G0 phase at 5 uM after 48 hrs by […]; format: functional
# MIA PaCa-2 [18] = test: Effect on cell cycle in human MiaPaCa2 cells assessed as accumulation at S phase at 5 uM after 24 hrs by […]; format: functional
# HEp-2 = test: Antiproliferative activity against human Hep2 cells after 72 hrs by MTT assay; format: functional, cell-based; details: HEp-2, 72 h
# MIA PaCa-2 [19] = test: Effect on cell cycle in human MiaPaCa2 cells assessed as accumulation at S phase at 5 uM after 48 hrs by […]; format: functional
pIC50 (MIA PaCa-2 [2]),log Ks [6],log Ks [8],pIC50 (MCF7),pIC50 (HeLa),log Ks [14],pIC50 (SW-620),Structure (SMILES),Activity (MIA PaCa-2 [1]),Activity (MIA PaCa-2 [4]),Activity (MIA PaCa-2 [5]),Activity (MIA PaCa-2 [7]),Activity (MIA PaCa-2 [9]),Activity (MIA PaCa-2 [10]),Activity (MIA PaCa-2 [11]),Activity (MIA PaCa-2 [12]),pIC50 [15],Activity (MIA PaCa-2 [16]),Activity (MIA PaCa-2 [17]),Activity (MIA PaCa-2 [18]),pIC50 (HEp-2),other results
5.92,4.2,6.1,5.22,5.70,5.19,4.73,C1=C(CCC[n+]2ccccc2)\C=N\c2ccccc2N/C=C(CCC[n+]2ccccc2)\C=N\c2ccccc2N/1.[Br-].[Br-],58.34%,10.7%,40%,16.38%,24.054%,31.03%,47.56%,9.2%,5.00,11%,65.59%,28.4%,4.96,log Ks [3]: 5.4; log Ks [13]: 4.77; Activity (MIA PaCa-2 [19]): 17.538%
5.59,6.1,5.3,5.59,4.87,5.9,5.40,C[n+]1ccc(CCC(=O)OCCCC2=C/Nc3ccccc3/N=C/C(CCCOC(=O)CCc3cc[n+](C)cc3)=C\Nc3ccccc3\N=C\2)cc1.[Br-].[Br-],84.02%,10.5%,20%,10.98%,21.76%,5.39%,62.32%,5.3%,5.40,10%,79.3%,16.29%,4.42,Activity (MIA PaCa-2 [19]): 9.7%
< 4.00,–,–,≤ 4.00,< 4.00,–,< 4.30,C1=C(CCC[n+]2ccc(-c3ccncc3)cc2)\C=N\c2ccccc2N/C=C(CCC[n+]2ccc(-c3ccncc3)cc2)\C=N\c2ccccc2N/1,–,–,–,–,–,–,–,–,< 4.00,–,–,–,< 4.00,–
